Values belong to the molecule of their own block, whether it stands above or below them. Active and inactive are the calls of the source.
What was measured:
[1] = biological target: T1, Alkaline phosphatase, tissue-nonspecific isozyme (Homo sapiens, UniProt P05186); experiment: SAR assay for compounds inhibiting TNAP in the absence of phosphate acceptor performed in a luminescent assay. [Related pubchem assays (depositor defined):AID1548, AID1659, AID518]
T1 sequence (P05186 whole entry): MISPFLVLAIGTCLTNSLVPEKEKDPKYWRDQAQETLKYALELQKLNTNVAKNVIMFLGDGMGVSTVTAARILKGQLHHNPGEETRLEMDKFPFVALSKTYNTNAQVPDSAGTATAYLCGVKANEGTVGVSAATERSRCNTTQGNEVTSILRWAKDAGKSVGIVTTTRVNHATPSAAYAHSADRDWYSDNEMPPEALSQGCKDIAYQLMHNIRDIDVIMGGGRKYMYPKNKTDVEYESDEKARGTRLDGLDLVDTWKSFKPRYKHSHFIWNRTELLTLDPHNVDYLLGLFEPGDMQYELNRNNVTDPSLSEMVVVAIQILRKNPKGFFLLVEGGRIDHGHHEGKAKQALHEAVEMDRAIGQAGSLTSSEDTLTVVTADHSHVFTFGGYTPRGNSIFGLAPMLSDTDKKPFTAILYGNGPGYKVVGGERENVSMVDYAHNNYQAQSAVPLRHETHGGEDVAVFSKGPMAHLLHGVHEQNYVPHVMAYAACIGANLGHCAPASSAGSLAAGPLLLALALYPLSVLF

[2] = biological target: T1, Alkaline phosphatase, tissue-nonspecific isozyme; experiment: potency against alkaline phosphatase TNAP – biochemical, luminescent, dose response, SAR follow-up (AID 1056)
[3] = biological target: Glyceraldehyde-3-phosphate dehydrogenase (Homo sapiens, UniProt P04406)
Sequence of Glyceraldehyde-3-phosphate dehydrogenase (P04406 whole entry): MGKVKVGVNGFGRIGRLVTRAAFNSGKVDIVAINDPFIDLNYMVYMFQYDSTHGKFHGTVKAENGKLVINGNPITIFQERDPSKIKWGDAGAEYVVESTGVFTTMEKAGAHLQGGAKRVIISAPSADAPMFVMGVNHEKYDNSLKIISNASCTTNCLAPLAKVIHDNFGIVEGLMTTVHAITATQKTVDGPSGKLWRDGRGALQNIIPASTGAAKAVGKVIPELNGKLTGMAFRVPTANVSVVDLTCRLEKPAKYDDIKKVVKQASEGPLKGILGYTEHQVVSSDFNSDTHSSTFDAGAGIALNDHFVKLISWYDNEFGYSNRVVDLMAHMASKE

[4] = biological target: G-protein coupled receptor 35 (Homo sapiens, UniProt Q9HC97); experiment: inhibition of zaprinast-stimulated GPR35 beta-arrestin translocation – imaging, U2OS, beta-arrestin-GFP, zaprinast agonist, primary screen (AID 2058); type: functional;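 also: antagonist potency meaning inhibition of agonist-induced arrestin redistribution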
Sequence of G-protein coupled receptor 35 (Q9HC97 whole entry): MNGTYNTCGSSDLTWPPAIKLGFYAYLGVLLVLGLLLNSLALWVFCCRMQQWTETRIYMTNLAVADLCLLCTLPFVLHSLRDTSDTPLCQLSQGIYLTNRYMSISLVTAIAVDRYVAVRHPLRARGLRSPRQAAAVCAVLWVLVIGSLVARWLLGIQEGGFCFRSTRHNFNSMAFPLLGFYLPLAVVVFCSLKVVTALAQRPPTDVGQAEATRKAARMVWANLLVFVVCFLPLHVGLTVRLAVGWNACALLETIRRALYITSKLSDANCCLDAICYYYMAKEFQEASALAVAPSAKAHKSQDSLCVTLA

[5] = biological target: T2, Protein phosphatase methylesterase 1 (Homo sapiens, UniProt Q9Y570); experiment: Late stage results from the probe development effort to identify inhibitors of the protein methylesterase PME-1: Gel-based Activity-Based Protein Profiling (ABPP) IC50: Purified enzyme.; type: functional
T2 sequence (Q9Y570 whole entry): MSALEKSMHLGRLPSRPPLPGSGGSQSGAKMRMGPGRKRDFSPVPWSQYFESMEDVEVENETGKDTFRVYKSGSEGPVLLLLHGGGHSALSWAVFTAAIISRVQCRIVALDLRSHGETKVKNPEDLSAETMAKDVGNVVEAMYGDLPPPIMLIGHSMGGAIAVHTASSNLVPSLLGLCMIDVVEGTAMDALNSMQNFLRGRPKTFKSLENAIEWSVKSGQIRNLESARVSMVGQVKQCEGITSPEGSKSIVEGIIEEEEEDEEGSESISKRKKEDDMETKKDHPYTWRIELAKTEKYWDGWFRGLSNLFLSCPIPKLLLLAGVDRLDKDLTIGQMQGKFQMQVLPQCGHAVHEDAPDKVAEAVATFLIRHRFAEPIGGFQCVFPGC

[6] = biological target: T2, Protein phosphatase methylesterase 1; experiment: endogenous PME-1 and serine hydrolase inhibition – cell lysate, mouse brain cytosol, FP-rhodamine, gel ABPP, selectivity assay for PME-1 inhibitor project, dose response, panel member PME-1 Assay Panel member description: Inhibition of endogenously expressed PME-1 (AID 2366)
[7] = biological target: DNA dC->dU-editing enzyme APOBEC-3G (Homo sapiens, UniProt Q9HC16); experiment: Dose Response confirmation of small molecule APOBEC3G DNA Deaminase Inhibitors via a fluorescence-based single-stranded DNA deaminase assay. [Related pubchem assays (depositor defined):AID493012, AID493028]; type: functional
Sequence of DNA dC->dU-editing enzyme APOBEC-3G (Q9HC16 whole entry): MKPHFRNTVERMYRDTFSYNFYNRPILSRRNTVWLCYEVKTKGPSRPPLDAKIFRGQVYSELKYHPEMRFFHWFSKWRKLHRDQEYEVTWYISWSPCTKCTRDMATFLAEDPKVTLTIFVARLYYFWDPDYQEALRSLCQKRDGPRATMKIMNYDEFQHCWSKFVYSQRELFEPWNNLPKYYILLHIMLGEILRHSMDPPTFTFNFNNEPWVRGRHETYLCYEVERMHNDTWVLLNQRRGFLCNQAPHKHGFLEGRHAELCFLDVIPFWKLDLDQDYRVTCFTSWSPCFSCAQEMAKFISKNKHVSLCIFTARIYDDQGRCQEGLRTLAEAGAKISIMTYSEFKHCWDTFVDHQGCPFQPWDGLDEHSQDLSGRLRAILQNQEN

[8] = biological target: DNA dC->dU-editing enzyme APOBEC-3A (Homo sapiens, UniProt P31941); experiment: A3A deaminase inhibition for selectivity – biochemical, dose response (AID 504722); type: functional
Sequence of DNA dC->dU-editing enzyme APOBEC-3A (P31941 whole entry): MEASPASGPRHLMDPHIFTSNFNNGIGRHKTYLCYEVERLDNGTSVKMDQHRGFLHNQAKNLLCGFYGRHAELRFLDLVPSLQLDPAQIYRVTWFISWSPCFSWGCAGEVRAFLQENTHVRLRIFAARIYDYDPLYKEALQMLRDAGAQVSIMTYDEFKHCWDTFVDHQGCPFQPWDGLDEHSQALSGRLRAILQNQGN

[9] = biological target: Female germline-specific tumor suppressor gld-1 (Caenorhabditis elegans, UniProt Q17339); experiment: blockers of GLD-1/TGE RNA complex formation – biochemical, fluorescence polarization, C. elegans, dose response (AID 2802);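 also: fluorescence polarization of labeled TGE RNA bound by purified gld-1 protein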
Sequence of Female germline-specific tumor suppressor gld-1 (Q17339 whole entry): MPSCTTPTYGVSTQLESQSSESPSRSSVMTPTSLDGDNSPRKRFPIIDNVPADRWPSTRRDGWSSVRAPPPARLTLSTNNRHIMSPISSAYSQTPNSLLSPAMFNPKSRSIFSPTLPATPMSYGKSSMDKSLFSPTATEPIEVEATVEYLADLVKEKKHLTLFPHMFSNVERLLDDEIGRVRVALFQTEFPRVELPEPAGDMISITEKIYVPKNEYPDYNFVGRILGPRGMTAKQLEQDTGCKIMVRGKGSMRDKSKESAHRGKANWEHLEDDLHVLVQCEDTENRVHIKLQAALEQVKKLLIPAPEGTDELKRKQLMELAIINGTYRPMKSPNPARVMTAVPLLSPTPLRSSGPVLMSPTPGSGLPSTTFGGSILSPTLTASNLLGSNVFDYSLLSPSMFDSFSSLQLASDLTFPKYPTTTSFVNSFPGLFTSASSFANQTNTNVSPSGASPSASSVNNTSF

[10] = biological target: Protein Rev (Human immunodeficiency virus type 1 group M subtype B (isolate HXB2)(HIV-1), UniProt P04618); experiment: blockers of HIV Rev/RRE RNA complex – biochemical, fluorescence polarization, HIV-1, dose response (AID 434976); design: species or system Human immunodeficiency virus 1
Sequence of Protein Rev (P04618 whole entry): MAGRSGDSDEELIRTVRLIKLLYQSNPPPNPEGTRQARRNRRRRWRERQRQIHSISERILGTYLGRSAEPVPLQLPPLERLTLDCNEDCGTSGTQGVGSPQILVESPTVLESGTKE

[11] = biological target: Signal transducer and activator of transcription 3 (Homo sapiens, UniProt P40763); experiment: STAT3 activation with BCL3 mRNA and toxicity – cell-based, […], BCL3 qPCR, cytotoxicity, late-stage follow-up, panel member STAT3 Activation (AID 2049)
Sequence of Signal transducer and activator of transcription 3 (P40763 whole entry): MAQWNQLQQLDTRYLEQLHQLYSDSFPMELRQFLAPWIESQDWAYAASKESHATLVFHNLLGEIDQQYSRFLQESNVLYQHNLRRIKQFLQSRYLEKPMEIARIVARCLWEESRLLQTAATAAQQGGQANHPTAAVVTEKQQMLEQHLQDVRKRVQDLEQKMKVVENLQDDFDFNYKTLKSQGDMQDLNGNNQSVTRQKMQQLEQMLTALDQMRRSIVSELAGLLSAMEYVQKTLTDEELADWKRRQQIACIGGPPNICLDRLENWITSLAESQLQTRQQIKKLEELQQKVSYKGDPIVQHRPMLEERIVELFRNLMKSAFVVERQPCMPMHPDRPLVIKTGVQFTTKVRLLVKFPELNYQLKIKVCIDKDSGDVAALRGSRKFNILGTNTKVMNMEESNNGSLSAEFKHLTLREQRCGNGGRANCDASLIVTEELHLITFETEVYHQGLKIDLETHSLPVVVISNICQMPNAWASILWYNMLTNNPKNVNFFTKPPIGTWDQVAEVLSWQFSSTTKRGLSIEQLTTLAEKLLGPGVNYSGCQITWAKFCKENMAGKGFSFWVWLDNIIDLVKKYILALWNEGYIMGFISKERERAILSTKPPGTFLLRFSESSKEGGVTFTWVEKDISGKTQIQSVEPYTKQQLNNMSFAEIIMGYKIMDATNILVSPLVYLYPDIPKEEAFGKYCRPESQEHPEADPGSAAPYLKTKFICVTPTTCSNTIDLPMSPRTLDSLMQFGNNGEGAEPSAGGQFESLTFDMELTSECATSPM

IC50 [1]: 0.00422 µM (active)
IC50 [2]: 0.00744 µM (active)
IC50 [3]: > 10 µM (inconclusive)
SMILES: O=C(NCCO)c1cc(-c2ccc(Cl)c(Cl)c2Cl)n[nH]1

IC50 [4]: 1.16 µM (active)
SMILES: COc1ccc(/C=C\C(=O)NCC(=O)N/N=C/c2ccc(O)cc2O)cc1

IC50 [5]: > 20 µM (not active)
IC50 [6]: > 20 µM (inactive)
SMILES: CS(=O)(=O)/C(C#N)=C/c1ccc([N+](=O)[O-])cc1

SMILES: FC(F)Oc1ccc(/C=N/n2c(S)nnc2Cc2ccc(Br)cc2)cc1
IC50 [7]: 6.93 µM (active)
IC50 [8]: > 100 µM (inactive)

SMILES: COc1ccc(/C=C(\CC(=O)O)c2nc3ccccc3s2)cc1O
IC50 [9]: 2.43 µM (active)
IC50 [10]: > 75.4 µM (not active)

SMILES: Nc1c(C(=O)Nc2ccccc2)noc1C(=O)c1ccccc1
EC50 [11]: > 55.7 µM (inactive)

Source: ChEMBL document CHEMBL1201862, “PubChem BioAssay data set” (2004)
